Twelve compounds from article PMC7993378, “Inhibition of bacterial and human zinc-metalloproteases by bisphosphonate- and catechol-containing compounds” (Journal of Enzyme Inhibition and Medicinal Chemistry, 2021) can be followed below.

Like-named read-outs stand apart in the source and are kept apart here.

Type in all cases: biochemical
The target in assay [1] is APMA-activated recombinant MMP-9 (rMMP-9(A)) (Homo sapiens, UniProt P14780). As to the kind of experiment: rMMP-9(A) inhibition in Tris-HCl buffer with varied preincubation time, followed continuously for 3 h. The note with it: 100 µM, 0.1 M Tris-HCl pH 7.5, N = 4. The source says:
Except for ML33, all catechol derivatives have previously been tested for binding to MMP-2, MMP-8 and MMP-9[60]. […] The Ki values for MMP-9 in the present study were higher than the IC50 values in the previous study, the exception was MT336 for which we obtained a lower value. It is not easy to point out a single factor in the experiments contributing to deviations between the studies. Both studies used a pH of 7.5 but the buffer compositions were slightly different. […] Tauro et al.[60] used a commercial active MMP-9 produced in E-coli that only contained the catalytic domain and the fibronectin-like (FnII) module. […] A factor that may contribute to differences is that after preincubation of MMP-9 with catechol derivatives and adding of the substrate for starting the reaction, we followed the reaction continuously for 30 min, while Tauro et al.[60] used an endpoint assay allowing the reaction to proceed for 2 to 4 h before the fluorescence was measured. We did some tests to determine if some of these differences could affect the binding results. In the test experiments, we used rMMP-9(A) which differs from the MMP-9(T) by a slightly different N-terminal and a largely truncated C-terminal HPX domain[57]. One hundred µM of BF466 was tested where the 0.1 M Hepes buffer pH 7.5 was exchanged to a 0.1 M Tris-HCl buffer pH 7.5. The rMMP-9(A) was preincubated with BF466 for 0, 15 and 30 min at 37 °C and the reaction was started by the addition of the substrate McaPLGL(Dpa)AR-NH2 (4 µM in the assay) following the reaction continuously for 3 h. The controls without BF466 were treated identically. […] The reaction was allowed to proceed for 4 h, and the reaction was stopped by addition of EDTA (end concentration 10 mM) and the relative fluorescence intensity determined.
The expression and purification of recombinant human full-length proMMP-9 (rpMMP-9) from Sf9 insect cells were performed as described previously. […] The amount of active MMP-9 was determined by active site titration using galardin also described previously.

A further assay deals with T1, aureolysin (ALN) (Staphylococcus aureus, UniProt P81177).
T1 construct: purchased BioCentrum Ltd (Kraków, Poland)
T1 sequence (P81177 209-509): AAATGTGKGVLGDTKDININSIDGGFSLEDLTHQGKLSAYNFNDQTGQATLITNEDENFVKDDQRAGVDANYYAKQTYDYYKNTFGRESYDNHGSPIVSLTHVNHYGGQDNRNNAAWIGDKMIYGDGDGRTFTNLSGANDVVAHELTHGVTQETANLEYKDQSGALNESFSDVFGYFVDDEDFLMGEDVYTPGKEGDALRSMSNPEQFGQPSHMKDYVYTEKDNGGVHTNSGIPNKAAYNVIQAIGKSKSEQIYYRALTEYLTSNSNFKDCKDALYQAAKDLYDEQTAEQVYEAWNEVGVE
The assay is described as follows: ALN inhibition, continuous initial rate assay with McaRPPGFSAFK(Dnp)-OH after 15 min preincubation. The note with it: for inhibition at 100 µM: read-out: inhibition (reduction of activity) of ALN, 100 μM compound, 15 min preincubation at 37 °C, 4 μM substrate. The protocol:
(§1) The inhibitorial power of 100 μM of the eight catechol containing compounds was tested against the two human metalloproteases MMP-9(T) and MMP-14 and the three bacterial metalloproteases ALN, PLN and TLN (Figure 1). In order to detect putative slow and slow-tight binding, the catechol derivatives were first incubated along with the enzyme for 15 min at 37 °C. In controls without inhibitor present, enzymes and buffer were preincubated under identical conditions. Thereafter, the enzyme reaction was started by adding the relevant […] substrate and the rate was followed continuously for 30 min. […] The activity was reduced with more than 50%, by MT336 for the two MMPs, by BF482 for MMP-9(T) and by ML33 for ALN (Figure 1). In all other inhibitory studies with catechol containing compounds, the activity was reduced between 0 and 45%.
(§2) To assure that this is correct, the inhibitors BF471 and BF489 were tested against varying McaRPPGFSAFK(Dnp)-OH using TLN as described in the Experimental section. […] It should be noted that the reaction was started by adding the enzyme to the substrate-inhibitor mixtures. In the case of slow binding, the full potential of these inhibitors would not be realised by this inhibitory assay. When the activity was reduced by more than […], experiments were performed with varying concentrations of the catechol derivatives. IC50 values were obtained from dose response plots, and Ki values were determined from the IC50 values based on substrate competitive inhibition. By the use of Ki values, we can compare the binding strength of the compounds for the different enzymes and not only comparing the compounds ability to bind one enzyme. There are several possible explanations for the deviation in determined Ki value of BF471 and BF489 for TLN from the dose response plots and the double inverse plots.
(§3) The various inhibitors were dissolved in 100% DMSO giving an inhibitor concentration of 10 mM. All the inhibitory and control experiments contained a total and fixed concentration of 1.0% DMSO. […] The fixed enzyme concentration were as follows; 0.28 nM MMP-9(T), 0.05 nM MMP-9(A), 1.0 nM MMP-14, 1.4 nM ALN, 0.5 nM PLN and 0.21 nM TLN. Enzymes with and without inhibitors were pre-incubated for 15 min at 37 °C, the initial rate assays were started by adding the substrate and the reaction was followed for 30 min. Assays were performed using a Spectra Max Gemini EM micro-plate reader (Molecular Devices) or a Clario Star micro plate reader (CLARIOstar® BMG LABTECH). Assays were performed at 37 °C, using an excitation wavelength of 320 nm and an emission wavelength of 405 nm with a slit width of 10 nm. The IC50 values were calculated either in Sigma Plot (Enzyme kinetics 1.3 module) or in Graph Pad Prism 5 using Equations (1) or (2) depending on the concentration span of the used inhibitor: (1) vi/v0= 1/(1+ 10^(pIC50−pI)) (2) vi/v0= 1/(1+ [I]/IC50) where vi is the enzyme activity in the presence of inhibitor, v0 the activity in the absence of inhibitor, pI=−log [Inhibitor] in M and pIC50 = −log IC50 in M. All experiments were performed in at least triplicate.

The target of a further assay is T2, TLN (Bacillus thermoproteolyticus, UniProt P00800).
T2 construct: purchased Calbiochem (San Diego, CA, USA)
T2 sequence (P00800 233-548): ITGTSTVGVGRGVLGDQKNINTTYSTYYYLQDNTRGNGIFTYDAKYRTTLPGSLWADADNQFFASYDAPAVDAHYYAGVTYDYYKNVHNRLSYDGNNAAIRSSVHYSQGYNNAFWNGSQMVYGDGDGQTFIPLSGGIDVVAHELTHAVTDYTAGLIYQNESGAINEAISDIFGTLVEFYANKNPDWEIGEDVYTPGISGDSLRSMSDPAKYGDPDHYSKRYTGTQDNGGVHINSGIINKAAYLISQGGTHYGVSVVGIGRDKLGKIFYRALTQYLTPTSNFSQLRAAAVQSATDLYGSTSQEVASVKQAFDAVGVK
As to the kind of experiment: TLN inhibition against varying McaRPPGFSAFK(Dnp)-OH, reaction started by adding enzyme (double inverse plots). The note with it: no preincubation, read-out: Ki TLN from varying substrate. As to the method:
as §2

The target in a further assay is T3, pseudolysin (PLN) (Pseudomonas aeruginosa, UniProt P14756).
T3 construct: purchased Calbiochem (San Diego, CA, USA)
T3 sequence (P14756 198-498): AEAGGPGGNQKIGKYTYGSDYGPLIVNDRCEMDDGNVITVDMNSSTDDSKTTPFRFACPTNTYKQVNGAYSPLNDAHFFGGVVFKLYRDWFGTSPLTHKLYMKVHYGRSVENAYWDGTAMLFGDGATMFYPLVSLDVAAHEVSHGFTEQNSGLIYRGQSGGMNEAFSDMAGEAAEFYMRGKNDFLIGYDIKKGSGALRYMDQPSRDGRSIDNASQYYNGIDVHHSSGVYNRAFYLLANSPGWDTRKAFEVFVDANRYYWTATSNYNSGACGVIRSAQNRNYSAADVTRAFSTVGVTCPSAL
As to the kind of experiment: PLN inhibition, continuous initial rate assay with McaRPPGFSAFK(Dnp)-OH after 15 min preincubation. The conditions noted are these: for inhibition at 100 µM: read-out: inhibition (reduction of activity) of PLN. As to the method: as §1, §2, §3

Another assay addresses T4, thermolysin (TLN) (Bacillus thermoproteolyticus, UniProt P00800).
T4 construct: purchased Calbiochem (San Diego, CA, USA)
The assay is described as follows: TLN inhibition, continuous initial rate assay with McaRPPGFSAFK(Dnp)-OH after 15 min preincubation. The conditions noted are these: for inhibition at 100 µM: 100 μM compound, 15 min preincubation at 37 °C, 4 μM substrate, read-out: inhibition (reduction of activity) of TLN; for Ki: substrate McaRPPGFSAFK(Dnp)-OH 4 µM, 4–6 experiments, read-out: Ki ± sd TLN. The protocol: as §1, §2, §3

The target of assay [2] is T5, trypsin-activated MMP-9 from THP-1 cells (MMP-9(T)) (Homo sapiens, UniProt P14780).
T5 construct: endogenous in cells; host or cells: THP-1 cells stimulated with PMA
T5 sequence (P14780 107-707 limits assumed): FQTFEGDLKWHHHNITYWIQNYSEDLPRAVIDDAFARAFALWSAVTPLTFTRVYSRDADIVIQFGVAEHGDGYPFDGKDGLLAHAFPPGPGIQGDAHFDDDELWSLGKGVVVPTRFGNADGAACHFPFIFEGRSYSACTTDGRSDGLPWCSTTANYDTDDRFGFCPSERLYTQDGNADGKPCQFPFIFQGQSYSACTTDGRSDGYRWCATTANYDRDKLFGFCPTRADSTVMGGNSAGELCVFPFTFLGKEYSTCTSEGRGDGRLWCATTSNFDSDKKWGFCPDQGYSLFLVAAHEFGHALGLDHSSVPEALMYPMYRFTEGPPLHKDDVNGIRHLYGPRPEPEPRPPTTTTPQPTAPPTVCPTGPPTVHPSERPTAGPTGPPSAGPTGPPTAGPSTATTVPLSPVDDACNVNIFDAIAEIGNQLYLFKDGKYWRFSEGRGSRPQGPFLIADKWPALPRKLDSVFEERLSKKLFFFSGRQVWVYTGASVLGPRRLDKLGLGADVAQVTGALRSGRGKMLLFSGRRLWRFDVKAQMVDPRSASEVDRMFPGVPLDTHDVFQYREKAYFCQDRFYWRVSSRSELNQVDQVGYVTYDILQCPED
The assay is described as follows: MMP-9(T) inhibition, continuous initial rate assay with McaPLGL(Dpa)AR-NH2 after 15 min preincubation. The note with it: for inhibition at 100 µM: read-out: inhibition (reduction of activity) of MMP-9(T); for Ki: substrate McaPLGL(Dpa)AR-NH2 4 µM, 4–6 experiments, read-out: Ki ± sd MMP-9(T). As to the method:
as §1, §2
The purified proMMP-9 was activated by trypsin, by mixing approximately 300 µg of proMMP-9 with trypsin (31 μg/ml) for 10 min at 37 °C in 0.1 M Hepes pH 7.5, 0.005% Brij35% and 10 mM CaCl2. The activation and processing of MMP-9 were terminated by adding a 50 times excess of SBTI (2.7 mg/ml) in relation to trypsin and after 10 min incubation at room temperature, the mixture was transferred and kept on ice during the kinetic and inhibition kinetic measurements. After activation, the activity was determined with 10 µM of McaPLGL(Dpa)AR-NH2 in 0.1 M Hepes pH 7.5, 0.005% Brij35% and 10 mM CaCl2 in a total assay volume of 100 µL, at 37 °C. Initial rates were measured at an excitation wavelength of 320 nm and an emission wavelength of 405 nm with a slit width of 10 nm using a Perkin Elmer LS 50 Luminescence spectrometer and the FL WinLab Software Package (Perkin Elmer). The amount of active MMP-9 was determined by active site titration using galardin as described previously.
The various inhibitors were dissolved in 100% DMSO giving an inhibitor concentration of 10 mM. All the inhibitory and control experiments contained a total and fixed concentration of 1.0% DMSO. […] The fixed enzyme concentration were as follows; 0.28 nM MMP-9(T), 0.05 nM MMP-9(A), 1.0 nM MMP-14, 1.4 nM ALN, 0.5 nM PLN and 0.21 nM TLN. Enzymes with and without inhibitors were pre-incubated for 15 min at 37 °C, the initial rate assays were started by adding the substrate and the reaction was followed for 30 min. Assays were performed using a Spectra Max Gemini EM micro-plate reader (Molecular Devices) or a Clario Star micro plate reader (CLARIOstar® BMG LABTECH). Assays were performed at 37 °C, using an excitation wavelength of 320 nm and an emission wavelength of 405 nm with a slit width of 10 nm. […]

Assay [3] addresses T6, Human MT1-MMP/MMP-14 (catalytic domain) (Homo sapiens, UniProt P50281).
T6 construct: Human MT1-MMP/MMP-14 (catalytic domain); purchased Calbiochem (San Diego, CA, USA)
As to the kind of experiment: MMP-14 inhibition, continuous initial rate assay with McaPLGL(Dpa)AR-NH2 after 15 min preincubation. The conditions noted are these: for inhibition at 100 µM: 100 μM compound, 15 min preincubation at 37 °C, 4 μM substrate, read-out: inhibition (reduction of activity) of MMP-14; for Ki: substrate McaPLGL(Dpa)AR-NH2 4 µM, 4–6 experiments, read-out: Ki ± sd MMP-14. As to the method: as §1, §2, §3

Where [4] appears, read: catechol compounds, Ki from IC50, substrate competitive.
Setting [5] is: 100 μM compound, 15 min preincubation at 37 °C, 4 μM substrate.

T4 sequence (P00800 233-548): as the sequence (P00800 233-548) above
Chain of APMA-activated recombinant MMP-9 (rMMP-9(A)) (P14780 107-444 limits assumed): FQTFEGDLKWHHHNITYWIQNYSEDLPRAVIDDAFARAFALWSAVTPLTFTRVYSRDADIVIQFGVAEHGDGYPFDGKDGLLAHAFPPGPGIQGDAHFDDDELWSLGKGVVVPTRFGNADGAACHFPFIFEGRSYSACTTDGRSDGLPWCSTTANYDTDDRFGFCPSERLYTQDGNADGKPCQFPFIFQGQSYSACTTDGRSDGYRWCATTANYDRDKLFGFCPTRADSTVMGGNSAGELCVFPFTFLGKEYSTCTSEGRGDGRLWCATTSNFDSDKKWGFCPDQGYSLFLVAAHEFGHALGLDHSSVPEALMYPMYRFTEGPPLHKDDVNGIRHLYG

Consider `O=S(=O)(NCc1cccc(O)c1O)c1ccc(-c2ccccc2)cc1` [BF466], for which the “vi/v0 rMMP-9(A)” value in assay [1] (preincubation 0 min at 37 °C) is recorded as 0.74 ± 0.04; in assay [1] (preincubation 15 min at 37 °C) it was 0.68 ± 0.02; in assay [1] (preincubation 30 min at 37 °C), 0.73 ± 0.05.

Take `O=S(=O)(Nc1ccc(O)c(O)c1)c1ccc(-c2ccccc2)cc1` [BF471]: the Ki (commonly the equilibrium dissociation constant of an inhibitor or competing ligand from its target) on aureolysin (ALN) came to 49 ± 5 µM; on TLN, 57 ± 6 µM; on pseudolysin (PLN), 9 ± 3 µM; on thermolysin (TLN) (setting [4]) it was 13 ± 2 µM; in assay [2] (setting [4]), 13 ± 2 µM. Moreover, the inhibition at 100 µM (on aureolysin (ALN); at pseudolysin (PLN); at thermolysin (TLN); in assay [2] (setting [5]); in assay [3]) was over 50% in each case.

As to `O=S(=O)(NCc1cccc(O)c1O)c1ccc(Br)cc1` [BF482], on pseudolysin (PLN) (setting [5]), the “inhibition (reduction of activity) of PLN” value is on record as “did not affect”. Further, the inhibition (as a rule, the change of the read-out against control, counted positive when it falls) at 100 µM in assay [2] (setting [5]) is over 50%.

For the compound `O=S(=O)(NCc1ccc(O)c(O)c1)c1ccc(Br)cc1` [BF486], the “inhibition (reduction of activity) of MMP-9(T)” value in assay [2] (setting [5]) was “did not affect”.

For the compound `O=S(=O)(Nc1ccc(O)c(O)c1)c1ccc(Br)cc1` [BF489], the inhibition at 100 µM (at aureolysin (ALN); on pseudolysin (PLN); at thermolysin (TLN); in assay [2] (setting [5]); in assay [3]) was over 50% each time. The Ki on TLN was determined as 73 ± 11 µM; at pseudolysin (PLN), 16 ± 3 µM; on thermolysin (TLN) (setting [4]) it was 14 ± 5 µM; in assay [2] (setting [4]), 12.6 ± 0.6 µM; in assay [3] (setting [4]) it was 8.3 ± 0.6 µM.

For `COc1ccc(S(=O)(=O)NC(P(=O)(O)O)P(=O)(O)O)cc1` [LS4], on pseudolysin (PLN), the Ki came to 58 ± 4 µM.

Take `O=S(=O)(Nc1cccc(O)c1O)c1ccc(-c2ccccc2)cc1` [ML32]: the inhibition at 100 µM (on aureolysin (ALN); at pseudolysin (PLN); in assay [2] (setting [5]); in assay [3]) was over 50% in each case. Also, the inhibition constant (Ki) on pseudolysin (PLN) amounted to 38 ± 8 µM; in assay [2] (setting [4]), 51 ± 17 µM; in assay [3] (setting [4]) it was 19 ± 0.8 µM.

On to `COc1ccc(S(=O)(=O)Nc2cccc(O)c2O)cc1` [ML33], for which, at aureolysin (ALN), the inhibition at 100 µM is over 50%.

For `O=P(O)(O)C(Nc1ccc(Cl)cc1)P(=O)(O)O` [ML45], the Ki at pseudolysin (PLN) turned out to be 37 ± 6 µM; in assay [3] (bisphosphonates), 17 ± 1 µM.

Regarding `O=C(NCc1ccc(-c2ccccc2)cc1)c1cccc(O)c1O` [MT336], the inhibition at 100 µM in assay [2] (setting [5]) and in assay [3] was over 50% in each case. The values for the inhibitory constant (Ki) in assay [2] (setting [4]) and in assay [3] (setting [4]) were 13 ± 1 µM and 12 ± 1 µM, respectively.

For the compound `O=P(O)(O)C(Nc1ccc(-c2ccccc2)cc1)P(=O)(O)O` [MT363], the Ki at pseudolysin (PLN) was determined as 12 ± 4 µM; on thermolysin (TLN) (bisphosphonates), 7 ± 1 µM; in assay [2] (bisphosphonates), 6.6 ± 0.4 µM; in assay [3] (bisphosphonates), 7.2 ± 0.6 µM.

Turning to `O=[N+]([O-])c1ccc(S(=O)(=O)NC(P(=O)(O)O)P(=O)(O)O)cc1` [RC2], the inhibitory constant (Ki) on pseudolysin (PLN) was 22 ± 3 µM; at thermolysin (TLN) (bisphosphonates), 16.2 ± 0.4 µM.
